Like-named read-outs stand apart in the source and are kept apart here.
Experiments:
[1] = DPPH method on ELISA (96-well microplate) for isolated compounds; format: biochemical; conditions: compounds 2.5 to 40 μM, 30 min, 517 nm; read-out: EC50 Values (μM), DPPH radical
Protocol: The radical scavenging effect of 2,2-diphenyl-1-picrylhydrazyl (DPPH; Thermo Fisher Scientific, Ward Hill, MA, USA) was measured using our previous method. Briefly, 0.1 mL of each sample solution (dissolved in EtOH) was mixed with 0.1 mL of 0.2 mM DPPH and allowed to stand at RT for 30 min under shade. The absorbance at 517 nm was measured using a microplate spectrophotometer (Epoch, Biotek Instruments, Inc., Winooski, VT, USA). Ascorbic acid (100 μg/mL) (Sigma–Aldrich, Co., St. Louis, MO, USA) was used as a positive control. The percentage of DPPH reduction between the treated sample and negative control well was calculated with the following formula: %EC = (A control − A sample) * 100/(A control), where A sample was the absorbance of the sample and A control was the absorbance of untreated sample. Results are indicated as EC50, which correspond to the sample concentration (μg/mL) required to inhibition by 50% of the initial DPPH radical scavenging activity under the given experimental conditions.
(§1) An amount of 100 μL of the I. rotunda extract (1.3 mg/mL) dissolved in methanol and 100 μL of the DPPH solution (1.2 mg/mL in methanol) were mixed and incubated for 30 min at 37 °C, protected from light. After that, the mixture was filtered through a 0.22 μm filter for HPLC analysis. The control sample was prepared by mixing 100 μL methanol with 100 μL of the extract. Both mixtures were analyzed using the same established analytical methods. The outflow was monitored at 254 and 326 nm wavelength. […] The ELISA assay was performed by following procedure. A 100 μL of DPPH solution (0.2 mM) was added to 100 μL of the sample on a 96-well plate, mixed for 5 s, and reacted for 30 min under shade. The absorbance was measured at 517 nm using a microplate spectrophotometer (Epoch, Biotek Instruments, Inc., Winooski, VT, USA). […] Ascorbic acid (100 μg/mL) (Sigma–Aldrich, Co., St. Louis, MO, USA) was used as the positive control.

[2] = HPLC-DPPH screening: peak area reduction in I. rotunda twig extract; format: biochemical; conditions: between DPPH treated and untreated samples in the I. rotunda extract, untreated = 100%
Protocol: as §1

[3] = Parallel artificial membrane permeability assay for the blood–brain barrier (PAMPA-BBB); format: in vitro ADME; conditions: for Cross BBB Potential: single compounds at 10 mM, classification based on Könczöl et al.; for Papp at 4 h, 1 mM: single compounds at concentration of 10 mM (stock), read-out: BBB Permeability log Pe (converted)
Protocol: The PAMPA-BBB experiment was carried out according to the study by Könczöl et al.. A slightly modified version of the PAMPA-BBB was used to assess effective permeability (Pe, cm/s) of compounds of I. rotunda. Briefly, 20 μL of stock solution of I. rotunda extract (10 mg/mL in MeOH) or test compound (10 mM in MeOH) was mixed with 180 μL of phosphate buffered saline (PBS, pH 7.4, 10 mM) to obtain the starting donor solution. Subsequently, the filter membrane of the donor (top) plate (96-well polycarbonate-based filter plate, Multiscreen-IP, MAIPTR10, pore size 0.45 μm, Milipore) was coated with 5 μL of porcine polar brain lipid extract (PBLE) solution (16.0 mg PBLE + 8.0 mg cholesterol dissolved in 600.0 μL n-dodecane). Then, 150.0 μL of the filtrate was placed on the membrane. The bottom (acceptor) plate (96-well microtiter plate, Multiscreen®, MATRNPS50, Milipore) was filled with 300.0 μL buffer solution (PBS, pH 7.4, 10 mM). The donor plate was carefully located on the acceptor plate to form a “sandwich”. It was incubated at 37 °C for 4 h without direct right exposure. After incubation, PAMPA plates were separated. Concentrations of identified compounds of I. rotunda in the starting donor solution and in acceptor and donor wells were determined in triplicate based on chromatographic peak areas derived from the same established analytical methods. […] Pe=−ln1−CA(t)/Cequilibrium /A×1/VD1/VA×t where Pe is permeability in cm s^−1. A = effective filter area = f × 0.3 cm^2; VD = donor well volume = 150 μL; VA = acceptor well volume = 300 μL; t = incubation time (s) = 14,400; CA(t) = compound concentration in the acceptor well at time t; and CD(t) = compound concentration in the donor well at time t. Cequilibrium is calculated as follows: Cequilibrium=CD(t)×VD+CA(t)×VA/VD+VA

[4] = parameters: method as in PMID 23565574; conditions: cited from earlier work
[5] = I. rotunda extract test, t = 14,400 s

| SMILES | EC50 [1] [µM] | Reduction of the Peak Area (%) [2] [%] | Cross BBB Potential [3] | further results |
| --- | --- | --- | --- | --- |
| O=C1O[C@H]([C@@H](O)CO)C(O)=C1O [Ascorbic acid, reference compound] | 22.6 ± 0.77 | – | – | – |
| COc1cc(/C=C/CO)cc(OC)c1O[C@@H]1O[C@H](CO)[C@@H](O)[C@H](O)[C@H]1O [Compound 1, Syringin] | – | 6.98 ± 0.44 | - (not detected in acceptor or log Pe < −6.0) | – |
| O=C(/C=C/c1ccc(O)c(O)c1)O[C@@H]1C[C@](O)(C(=O)O)C[C@@H](O)[C@H]1O [Compound 2, Chlorogenic acid] | – | – | - (not detected in acceptor or log Pe < −6.0) | BBB permeability (in words) [4]: poor permeability |
| C[C@@H]1O[C@@H](OC[C@H]2O[C@@H](Oc3c(-c4ccc(O)c(O)c4)oc4cc(O)cc(O)c4c3=O)[C@H](O)[C@@H](O)[C@@H]2O)[C@H](O)[C@H](O)[C@H]1O [Compound 3, Rutin] | – | 21.45 ± 0.90 | - (not detected in acceptor or log Pe < −6.0) | BBB permeability (in words) [4]: poor permeability |
| CC(=CCOC1OC(CO)C(O)C(O)C1O)COC(=O)C=Cc1ccc(O)c(O)c1 (stereo not drawn) [Compound 4, Rotundarpenoside B] | – | 18.99 ± 0.90 | - (not detected in acceptor or log Pe < −6.0) | – |
| O=C(C=Cc1ccc(O)c(O)c1)OC1CC(O)(C(=O)O)CC(O)C1OC(=O)C=Cc1ccc(O)c(O)c1 (stereo not drawn) [Compound 5, 3,4-Dicaffeoylquinic acid] | – | 45.24 ± 0.67 | - (not detected in acceptor or log Pe < −6.0) | – |
| O=C(/C=C/c1ccc(O)c(O)c1)O[C@@H]1C[C@](O)(C(=O)O)C[C@@H](OC(=O)/C=C/c2ccc(O)c(O)c2)[C@H]1O [Compound 6, 3,5-Dicaffeoylquinic acid] | 10.88 ± 0.04 | 58.88 | - (not detected in acceptor or log Pe < −6.0) | Reduction of the Peak Area (%) ([2]; listed as 3,5-dicaffeoylquinic acid (6)): 58.88 ± 0.44% |
| O=C(/C=C/c1ccc(O)c(O)c1)O[C@@H]1[C@H](O)C[C@@](O)(C(=O)O)C[C@H]1OC(=O)/C=C/c1ccc(O)c(O)c1 [Compound 7, 4,5-Dicaffeoylquinic acid] | 13.8 ± 0.24 | 83.67 | + (log Pe > −6.0) | Reduction of the Peak Area (%) ([2]; listed as 4,5-dicaffeoylquinic acid (7)): 83.67 ± 0.19%; Concentration of acceptor solution CA(t) [3, 5]: 6.62 µg/mL; Concentration of donor solution CD(t) [3, 5]: 287.86 µg/mL; BBB permeability (in words) ([3]; PAMPA-BBB, extract and 10 mM tests): moderate BBB permeability; Papp at 4 h, 1 mg/mL extract ([3]; PAMPA, compound within I. rotunda extract (10 mg/mL stock), pH 7.4, 37 °C, 4 h, read-out: BBB permeability log Pe (converted)): 1.58 ×10⁻⁶ cm/s; Papp at 4 h, 1 mM ([3]; PAMPA, pH 7.4, 37 °C, 4 h): 1.41 ×10⁻⁶ cm/s |
| O=C(/C=C/c1ccc(O)c(O)c1)O[C@@H]1C[C@](O)(C(=O)O)C[C@@H](OC(=O)/C=C/c2ccc(O)c(O)c2)[C@H]1OC(=O)/C=C/c1ccc(O)c(O)c1 [Compound 8, 3,4,5-Tricaffeoylquinic acid] | 10.9 ± 0.14 | 67.25 | - (not detected in acceptor or log Pe < −6.0) | Reduction of the Peak Area (%) ([2]; listed as 3,4,5-tricaffeoylquinic acid (8)): 67.25 ± 1.00% |
| O=C(O)/C=C/c1ccc(O)c(O)c1 [caffeic acid, reference compound] | – | – | - (not detected in acceptor or log Pe < −6.0) | Papp at 4 h, 1 mM ([3]; PAMPA, pH 7.4, 37 °C, 4 h): 0.000832 ×10⁻⁶ cm/s |
| O=c1ccc2ccccc2o1 [coumarin, reference compound] | – | – | ++ (log Pe > −5.0) | Papp at 4 h, 1 mM ([3]; PAMPA, pH 7.4, 37 °C, 4 h): 28.8 ×10⁻⁶ cm/s |
